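Method: 48-hour compound exposure of cells in 96-well plates, five concentrations, linear interpolation of endpoints. The concentration for 50% growth inhibition is given as GI50.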 Calls of active or inactive are those of the source. Cut-off read from the data, not from the text of the source: active = GI50 up to about 1.1 µM and inactive = higher.
Assays:
Test in all cases: inhibition of tumour cell growth, NCI panel, 48 h
[1] = system: M14
[2] = system: UO-31
[3] = system: OVCAR-4
[4] = system: SW-620
[5] = system: 786-0
[6] = system: M19-MEL
[7] = system: LOX IMVI
[8] = system: U-251
[9] = system: NCI-H460
[10] = system: ACHN
[11] = system: K562
[12] = system: CAKI-1
[13] = system: RPMI-8226
[14] = system: COLO 205
[15] = system: HCT-116
[16] = system: HOP-92
[17] = system: SK-MEL-2
[18] = system: DMS-114
[19] = system: SF-539
[20] = system: DMS-273
[21] = system: A549
[22] = system: UACC-257
[23] = system: HL-60
[24] = system: CCRF-CEM
[25] = system: OVCAR-8
[26] = system: EKVX
[27] = system: SN12C
[28] = system: LXFL 529
[29] = system: OVCAR-5
[30] = system: RXF 631
[31] = system: SF-295
[32] = system: SF-268
[33] = system: Malme-3M
[34] = system: SNB-75
[35] = system: SK-MEL-28
[36] = system: SNB-78
[37] = system: NCI-H522
[38] = system: HCT-15
[39] = system: IGROV-1
[40] = system: SK-OV-3
[41] = system: UACC-62
[42] = system: NCI-H23
[43] = system: HOP-62
[44] = system: TK-10
[45] = system: OVCAR-3
[46] = system: KM12
[47] = system: SNB-19
[48] = system: RXF 393
[49] = system: HT-29
[50] = system: A498
[51] = system: MOLT-4
[52] = system: SK-MEL-5
[53] = system: XF498
[54] = system: KM-20L2
[55] = system: HCC 2998
[56] = system: HOP-18
[57] = system: SR
[58] = system: DLD-1
[59] = system: NCI-H226

C=CCC1=C(C)C[C@@H]2CCC(=O)C=C12
GI50 [1]: > 100 µM (inactive) | GI50 [2]: > 100 µM (inactive) | GI50 [3]: > 100 µM (inactive) | GI50 [4]: > 100 µM (inactive) | GI50 [5]: > 100 µM (inactive) | GI50 [6]: > 100 µM (inactive) | GI50 [7]: > 100 µM (inactive) | GI50 [8]: > 100 µM (inactive) | GI50 [9]: > 100 µM (inactive) | GI50 [10]: > 100 µM (inactive) | GI50 [11]: > 100 µM (inactive) | GI50 [12]: > 100 µM (inactive) | GI50 [13]: > 100 µM (inactive) | GI50 [14]: > 100 µM (inactive) | GI50 [15]: > 100 µM (inactive) | GI50 [16]: > 100 µM (inactive) | GI50 [17]: > 100 µM (inactive) | GI50 [18]: > 100 µM (inactive) | GI50 [19]: > 100 µM (inactive) | GI50 [20]: > 100 µM (inactive) | GI50 [21]: > 100 µM (inactive) | GI50 [22]: > 100 µM (inactive) | GI50 [23]: > 100 µM (inactive) | GI50 [24]: > 100 µM (inactive) | GI50 [25]: > 100 µM (inactive) | GI50 [26]: > 100 µM (inactive) | GI50 [27]: > 100 µM (inactive) | GI50 [28]: > 100 µM (inactive) | GI50 [29]: > 100 µM (inactive) | GI50 [30]: > 100 µM (inactive) | GI50 [31]: > 100 µM (inactive) | GI50 [32]: > 100 µM (inactive) | GI50 [33]: > 100 µM (inactive) | GI50 [34]: > 100 µM (inactive) | GI50 [35]: > 100 µM (inactive) | GI50 [36]: > 100 µM (inactive) | GI50 [37]: > 100 µM (inactive) | GI50 [38]: > 100 µM | GI50 [39]: > 100 µM (inactive) | GI50 [40]: > 100 µM (inactive) | GI50 [41]: > 100 µM (inactive) | GI50 [42]: > 100 µM (inactive) | GI50 [43]: > 100 µM (inactive) | GI50 [44]: > 100 µM (inactive) | GI50 [45]: > 100 µM (inactive) | GI50 [46]: > 100 µM (inactive) | GI50 [47]: > 100 µM (inactive) | GI50 [48]: > 100 µM (inactive) | GI50 [49]: > 100 µM (inactive) | GI50 [50]: > 100 µM (inactive) | GI50 [51]: > 100 µM (inactive) | GI50 [52]: > 100 µM (inactive)

COc1ccc(CN[C@H]2CCc3cc(OC)c(OC)c(OC)c3-c3ccc(SC)c(=O)cc32)c(OC)c1OC
GI50 [1]: 0.0308 µM (active) | GI50 [53]: 0.0308 µM (active) | GI50 [2]: 0.132 µM (active) | GI50 [3]: 0.0343 µM (active) | GI50 [4]: 0.0416 µM (active) | GI50 [5]: 0.037 µM (active) | GI50 [6]: 0.0338 µM (active) | GI50 [54]: 0.0185 µM (active) | GI50 [7]: 0.0352 µM (active) | GI50 [8]: 0.0194 µM (active) | GI50 [9]: 0.026 µM (active) | GI50 [10]: 0.063 µM (active) | GI50 [11]: 0.0346 µM (active) | GI50 [12]: 0.0452 µM (active) | GI50 [55]: 0.0202 µM (active) | GI50 [13]: 0.0352 µM (active) | GI50 [14]: 0.0234 µM (active) | GI50 [15]: 0.0229 µM (active) | GI50 [56]: 58.3 µM (inactive) | GI50 [16]: 0.0681 µM (active) | GI50 [17]: 0.0282 µM (active) | GI50 [18]: 0.019 µM (active) | GI50 [19]: 0.0211 µM (active) | GI50 [20]: 0.0267 µM (active) | GI50 [21]: 0.0459 µM (active) | GI50 [22]: 0.0811 µM (active) | GI50 [23]: 0.0266 µM (active) | GI50 [24]: 0.0356 µM (active) | GI50 [25]: 0.0277 µM (active) | GI50 [57]: 0.0167 µM (active) | GI50 [26]: 0.0237 µM (active) | GI50 [27]: 0.0381 µM (active) | GI50 [28]: 0.0447 µM (active) | GI50 [29]: 0.0421 µM (active) | GI50 [31]: 0.0296 µM (active) | GI50 [32]: 0.0366 µM (active) | GI50 [33]: 0.0484 µM (active) | GI50 [34]: 0.0184 µM (active) | GI50 [35]: 0.0443 µM (active) | GI50 [58]: 0.0327 µM (active) | GI50 [36]: 0.0394 µM (active) | GI50 [37]: 0.0216 µM (active) | GI50 [38]: 0.0266 µM | GI50 [39]: 0.135 µM (active) | GI50 [40]: 0.0293 µM (active) | GI50 [41]: 0.023 µM (active) | GI50 [42]: 0.0219 µM (active) | GI50 [43]: 0.0319 µM (active) | GI50 [44]: 0.0849 µM (active) | GI50 [45]: 0.0235 µM (active) | GI50 [59]: 0.0237 µM (active) | GI50 [46]: 0.0308 µM (active) | GI50 [47]: 0.0658 µM (active) | GI50 [48]: 0.0181 µM (active) | GI50 [49]: 0.0205 µM (active) | GI50 [50]: 0.0296 µM (active) | GI50 [51]: 0.0361 µM (active) | GI50 [52]: 0.0326 µM (active)

CCCCCCNC(=O)CCN(C(=O)O)S(=O)(=O)c1ccc(NC(=O)c2ccccc2)cc1
GI50 [1]: > 100 µM (inactive) | GI50 [53]: > 100 µM (inactive) | GI50 [2]: > 100 µM (inactive) | GI50 [3]: > 100 µM (inactive) | GI50 [4]: 14.2 µM (inactive) | GI50 [5]: > 96.4 µM (inactive) | GI50 [6]: > 49.3 µM (inactive) | GI50 [54]: > 100 µM (inactive) | GI50 [7]: 25.1 µM (inactive) | GI50 [8]: 20 µM (inactive) | GI50 [9]: 27.6 µM (inactive) | GI50 [10]: > 100 µM (inactive) | GI50 [11]: > 48.2 µM (inactive) | GI50 [12]: > 100 µM (inactive) | GI50 [55]: > 100 µM (inactive) | GI50 [13]: 26.4 µM (inactive) | GI50 [14]: 24.8 µM (inactive) | GI50 [15]: 39 µM (inactive) | GI50 [56]: > 100 µM (inactive) | GI50 [16]: > 100 µM (inactive) | GI50 [17]: > 100 µM (inactive) | GI50 [18]: 20.4 µM (inactive) | GI50 [19]: 17.9 µM (inactive) | GI50 [20]: > 41 µM (inactive) | GI50 [21]: > 45.7 µM (inactive) | GI50 [22]: > 48.9 µM (inactive) | GI50 [23]: 35.9 µM (inactive) | GI50 [24]: 22.3 µM (inactive) | GI50 [25]: > 61.2 µM (inactive) | GI50 [57]: 19.3 µM (inactive) | GI50 [26]: > 100 µM (inactive) | GI50 [27]: > 100 µM (inactive) | GI50 [28]: > 95.9 µM (inactive) | GI50 [29]: > 100 µM (inactive) | GI50 [31]: > 100 µM (inactive) | GI50 [32]: > 78.9 µM (inactive) | GI50 [33]: > 100 µM (inactive) | GI50 [34]: > 100 µM (inactive) | GI50 [35]: > 100 µM (inactive) | GI50 [58]: 19.1 µM (inactive) | GI50 [36]: > 100 µM (inactive) | GI50 [37]: > 20 µM (inactive) | GI50 [38]: 22 µM | GI50 [39]: > 100 µM (inactive) | GI50 [40]: > 100 µM (inactive) | GI50 [41]: > 44.6 µM (inactive) | GI50 [42]: > 100 µM (inactive) | GI50 [43]: > 100 µM (inactive) | GI50 [44]: > 100 µM (inactive) | GI50 [45]: > 100 µM (inactive) | GI50 [59]: > 100 µM (inactive) | GI50 [46]: > 57.4 µM (inactive) | GI50 [47]: > 100 µM (inactive) | GI50 [48]: > 100 µM (inactive) | GI50 [49]: > 86.1 µM (inactive) | GI50 [50]: > 100 µM (inactive) | GI50 [51]: > 42.9 µM (inactive) | GI50 [52]: > 100 µM (inactive)

Source: ChEMBL document CHEMBL1201862, “PubChem BioAssay data set” (2004)
